pIC50: −log10 of the molar value.
Tested on: 958667-338-R-J2-PDC tumor spheroids viability
Test: Anticancer human tumor 958667-338-R-J2-PDC patient-derived colon adenocarcinoma cell line growth inhibition [PI3K]
Conditions: spheroids with HUVEC and MSC; for pIC50: curve of first compound; for viability, T/C: stronger effect = lower value
In short: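 High-throughput combination screen: PI3K inhibitors crossed with targeted small molecules on complex spheroids of tumor cells, HUVEC and MSCs at 37 degrees C, 5% CO2. Top concentration was at or near clinical Cmax (otherwise 10 microM), with half-log decrements.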

[1] = second compound 0.0316 µM, first compound 0.0316 µM
[2] = second compound 0.0316 µM, first compound 0.1 µM
[3] = second compound 0.0316 µM, first compound 0.316 µM
[4] = second compound 0.0316 µM, first compound 1 µM
[5] = second compound 0.0316 µM, first compound 3.16 µM
[6] = second compound 0.0316 µM, first compound 10 µM
[7] = second compound 0.1 µM, first compound 0.0316 µM
[8] = second compound 0.1 µM, first compound 0.1 µM
[9] = second compound 0.1 µM, first compound 0.316 µM
[10] = second compound 0.1 µM, first compound 1 µM
[11] = second compound 0.1 µM, first compound 3.16 µM
[12] = second compound 0.1 µM, first compound 10 µM
[13] = second compound 0.316 µM, first compound 0.0316 µM
[14] = second compound 0.316 µM, first compound 0.1 µM
[15] = second compound 0.316 µM, first compound 0.316 µM
[16] = second compound 0.316 µM, first compound 1 µM
[17] = second compound 0.316 µM, first compound 3.16 µM
[18] = second compound 0.316 µM, first compound 10 µM
[19] = second compound 1 µM, first compound 0.0316 µM
[20] = second compound 1 µM, first compound 0.1 µM
[21] = second compound 1 µM, first compound 0.316 µM
[22] = second compound 1 µM, first compound 1 µM
[23] = second compound 1 µM, first compound 3.16 µM
[24] = second compound 1 µM, first compound 10 µM
[25] = second compound 3.16 µM, first compound 0.0316 µM
[26] = second compound 3.16 µM, first compound 0.1 µM
[27] = second compound 3.16 µM, first compound 0.316 µM
[28] = second compound 3.16 µM, first compound 1 µM
[29] = second compound 3.16 µM, first compound 3.16 µM
[30] = second compound 3.16 µM, first compound 10 µM
[31] = second compound 10 µM, first compound 0.0316 µM
[32] = second compound 10 µM, first compound 0.1 µM
[33] = second compound 10 µM, first compound 0.316 µM
[34] = second compound 10 µM, first compound 1 µM
[35] = second compound 10 µM, first compound 3.16 µM
[36] = second compound 10 µM, first compound 10 µM
[37] = second compound 0.0316 µM, first compound 0.00316 µM
[38] = second compound 0.0316 µM, first compound 0.01 µM
[39] = second compound 0.1 µM, first compound 0.00316 µM
[40] = second compound 0.1 µM, first compound 0.01 µM
[41] = second compound 0.316 µM, first compound 0.00316 µM
[42] = second compound 0.316 µM, first compound 0.01 µM
[43] = second compound 1 µM, first compound 0.00316 µM
[44] = second compound 1 µM, first compound 0.01 µM
[45] = second compound 3.16 µM, first compound 0.00316 µM
[46] = second compound 3.16 µM, first compound 0.01 µM
[47] = second compound 10 µM, first compound 0.00316 µM
[48] = second compound 10 µM, first compound 0.01 µM
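Further: spheroids exposed to compounds for seven days before readout.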

CC(C)NCC(C(=O)N1CCN(c2ncnc3c2C(C)CC3O)CC1)c1ccc(Cl)cc1 (stereo not drawn) + CC(Nc1ncnc2nc[nH]c12)c1cc2cccc(Cl)c2c(=O)n1-c1ccccc1
pIC50 (second compound 0.0316 µM): < 5.00
pIC50 (second compound 0.1 µM): < 5.00
pIC50 (second compound 0.316 µM): < 5.00
pIC50 (second compound 1 µM): < 5.00
pIC50 (second compound 3.16 µM): < 5.00
pIC50 (second compound 10 µM): < 5.00
viability, T/C [1]: 81.9%
viability, T/C [2]: 97.3%
viability, T/C [3]: 72.1%
viability, T/C [4]: 82%
viability, T/C [5]: 89.7%
viability, T/C [6]: 64%
viability, T/C [7]: 102%
viability, T/C [8]: 95.7%
viability, T/C [9]: 86.5%
viability, T/C [10]: 95.7%
viability, T/C [11]: 92.4%
viability, T/C [12]: 68.7%
viability, T/C [13]: 94.7%
viability, T/C [14]: 104%
viability, T/C [15]: 80%
viability, T/C [16]: 94%
viability, T/C [17]: 83.3%
viability, T/C [18]: 70.5%
viability, T/C [19]: 85.9%
viability, T/C [20]: 80.6%
viability, T/C [21]: 93.4%
viability, T/C [22]: 101%
viability, T/C [23]: 77.8%
viability, T/C [24]: 63.4%
viability, T/C [25]: 77.4%
viability, T/C [26]: 87.5%
viability, T/C [27]: 102%
viability, T/C [28]: 84.2%
viability, T/C [29]: 80.2%
viability, T/C [30]: 64.7%
viability, T/C [31]: 91.2%
viability, T/C [32]: 88.4%
viability, T/C [33]: 79.3%
viability, T/C [34]: 83.2%
viability, T/C [35]: 81.7%
viability, T/C [36]: 55.2%

CCN1CCN(Cc2ccc(Nc3ncc(F)c(-c4cc(F)c5nc(C)n(C(C)C)c5c4)n3)nc2)CC1 + CC(Nc1ncnc2nc[nH]c12)c1cc2cccc(Cl)c2c(=O)n1-c1ccccc1
pIC50 (second compound 0.0316 µM): < 6.00
pIC50 (second compound 0.1 µM): < 6.00
pIC50 (second compound 0.316 µM): < 6.00
pIC50 (second compound 1 µM): < 6.00
pIC50 (second compound 3.16 µM): < 6.00
pIC50 (second compound 10 µM): < 6.00
viability, T/C [37]: 91.2%
viability, T/C [38]: 98.2%
viability, T/C [1]: 98.8%
viability, T/C [2]: 76.2%
viability, T/C [3]: 66.1%
viability, T/C [4]: 63.4%
viability, T/C [39]: 87.2%
viability, T/C [40]: 88.9%
viability, T/C [7]: 87.3%
viability, T/C [8]: 83%
viability, T/C [9]: 68.8%
viability, T/C [10]: 65.2%
viability, T/C [41]: 89.2%
viability, T/C [42]: 97%
viability, T/C [13]: 82.2%
viability, T/C [14]: 70.8%
viability, T/C [15]: 71.4%
viability, T/C [16]: 71.2%
viability, T/C [43]: 102%
viability, T/C [44]: 71.1%
viability, T/C [19]: 86.2%
viability, T/C [20]: 66.1%
viability, T/C [21]: 69%
viability, T/C [22]: 66.2%
viability, T/C [45]: 108%
viability, T/C [46]: 89.7%
viability, T/C [25]: 84%
viability, T/C [26]: 65.5%
viability, T/C [27]: 64%
viability, T/C [28]: 55.9%
viability, T/C [47]: 90%
viability, T/C [48]: 82.8%
viability, T/C [31]: 77.8%
viability, T/C [32]: 57.8%
viability, T/C [33]: 57.8%
viability, T/C [34]: 53.9%

Cn1ncc(Cl)c1-c1cc(C(=O)NC(CN)Cc2cccc(F)c2)sc1Cl (stereo not drawn) + CC(Nc1ncnc2nc[nH]c12)c1cc2cccc(Cl)c2c(=O)n1-c1ccccc1
pIC50 (second compound 0.0316 µM): < 5.00
pIC50 (second compound 0.1 µM): 5.36
pIC50 (second compound 0.316 µM): 5.86
pIC50 (second compound 1 µM): 5.49
pIC50 (second compound 3.16 µM): 5.44
pIC50 (second compound 10 µM): 5.74
viability, T/C [1]: 87.7%
viability, T/C [2]: 87.1%
viability, T/C [3]: 100%
viability, T/C [4]: 60.6%
viability, T/C [5]: 60.5%
viability, T/C [6]: 43.4%
viability, T/C [7]: 111%
viability, T/C [8]: 81.1%
viability, T/C [9]: 84.7%
viability, T/C [10]: 64.1%
viability, T/C [11]: 59%
viability, T/C [12]: 37.5%
viability, T/C [13]: 93.7%
viability, T/C [14]: 89.9%
viability, T/C [15]: 82.1%
viability, T/C [16]: 50.7%
viability, T/C [17]: 52.2%
viability, T/C [18]: 37.2%
viability, T/C [19]: 95.6%
viability, T/C [20]: 87.3%
viability, T/C [21]: 97.1%
viability, T/C [22]: 75.9%
viability, T/C [23]: 51.4%
viability, T/C [24]: 39.4%
viability, T/C [25]: 88.4%
viability, T/C [26]: 89.1%
viability, T/C [27]: 85.8%
viability, T/C [28]: 79.7%
viability, T/C [29]: 52.1%
viability, T/C [30]: 32.6%
viability, T/C [31]: 82.3%
viability, T/C [32]: 82.3%
viability, T/C [33]: 65.9%
viability, T/C [34]: 59.4%
viability, T/C [35]: 42.9%
viability, T/C [36]: 28.2%

Cn1ncnc1[C@H]1c2n[nH]c(=O)c3cc(F)cc(c23)N[C@@H]1c1ccc(F)cc1 + CC(Nc1ncnc2nc[nH]c12)c1cc2cccc(Cl)c2c(=O)n1-c1ccccc1
pIC50 (second compound 0.0316 µM): < 7.00
pIC50 (second compound 0.1 µM): < 7.00
pIC50 (second compound 0.316 µM): < 7.00
pIC50 (second compound 1 µM): < 7.00
pIC50 (second compound 3.16 µM): < 7.00
pIC50 (second compound 10 µM): < 7.00
viability, T/C (second compound 0.0316 µM, first compound 0.000316 µM): 103%
viability, T/C (second compound 0.0316 µM, first compound 0.001 µM): 114%
viability, T/C [37]: 105%
viability, T/C [38]: 110%
viability, T/C [1]: 113%
viability, T/C [2]: 98%
viability, T/C (second compound 0.1 µM, first compound 0.000316 µM): 103%
viability, T/C (second compound 0.1 µM, first compound 0.001 µM): 82.8%
viability, T/C [39]: 117%
viability, T/C [40]: 126%
viability, T/C [7]: 119%
viability, T/C [8]: 83.6%
viability, T/C (second compound 0.316 µM, first compound 0.000316 µM): 120%
viability, T/C (second compound 0.316 µM, first compound 0.001 µM): 114%
viability, T/C [41]: 111%
viability, T/C [42]: 116%
viability, T/C [13]: 118%
viability, T/C [14]: 94.7%
viability, T/C (second compound 1 µM, first compound 0.000316 µM): 109%
viability, T/C (second compound 1 µM, first compound 0.001 µM): 112%
viability, T/C [43]: 99.9%
viability, T/C [44]: 100%
viability, T/C [19]: 95.2%
viability, T/C [20]: 96.3%
viability, T/C (second compound 3.16 µM, first compound 0.000316 µM): 107%
viability, T/C (second compound 3.16 µM, first compound 0.001 µM): 109%
viability, T/C [45]: 99.2%
viability, T/C [46]: 89.9%
viability, T/C [25]: 94.7%
viability, T/C [26]: 89.8%
viability, T/C (second compound 10 µM, first compound 0.000316 µM): 93.7%
viability, T/C (second compound 10 µM, first compound 0.001 µM): 98.3%
viability, T/C [47]: 109%
viability, T/C [48]: 89.9%
viability, T/C [31]: 83.2%
viability, T/C [32]: 88.4%

Reference: PubChem BioAssay AID1963963 (Molecular Pharmacology Branch, DTP, NCI, 2024)
